Series [1] concerns Plasmodium falciparum 3D7. The series is described as follows: In vitro antimalarial image-based asexual assay, 3D7. The format is cell-based. To be noted: for IC50: Plasmodium falciparum, 3D7, chloroquine-sensitive strain, 72 h, n = 4, read-out: Pf 3D7 IC50 ± SD; for SI for 3D7: SI = HEK293 IC50/parasite IC50. The procedure:
(§1) Plasmodium falciparum 3D7 and Dd2 parasites were cultured in RPMI1640 (Life Technologies, Camarillo, CA, USA) supplemented with 2.5 mg/mL Albumax II, 5% AB human serum, 25 mM HEPES and 0.37 mM hypoxanthine. Ring-stage parasites were treated with compounds following two rounds of sorbitol synchronisation as previously described. Artesunate, pyrimethamine and puromycin were incorporated as controls. Following incubation of assay plates for 72 h at 37 °C, and 5% CO2 and 5% O2, parasites were stained with 2-(4-amidinophenyl)-1H-indole-6-carboxamidine (DAPI) and imaged using an Opera QEHS confocal imaging system (PerkinElmer, Waltham, MA, USA). Images were analysed as previously described using Acapella spot detection software (PerkinElmer, Waltham, MA, USA).

Series [2] concerns Plasmodium falciparum Dd2. Put plainly: In vitro antimalarial image-based asexual assay, Dd2. To be noted: for IC50: Plasmodium falciparum, DD2, 72 h, n = 4, read-out: Pf Dd2 IC50 ± SD; for SI for Dd2: SI = HEK293 IC50/parasite IC50. It counts as cell-based. As to the method:
as §1

Series [3] concerns HEK293 cells. The series is described as follows: In vitro cytotoxicity assay (Alamar Blue). The format is cell-based, human. To be noted: for IC50: HEK293, 72 h, n = 2. As to the method:
Human embryonic kidney cells (HEK293) were maintained in DMEM (Life Technologies, Camarillo, CA, USA) containing 10% FBS (Hyclone™ ThermoFisher, Melbourne, Australia). Cytotoxicity testing was undertaken as previously described. In brief, 5 μL of test compound was added/well of black/clear tissue culture treated 384-well plates containing 3000 adherent HEK293 cells/well in 45 μL and incubated 72 h at 37 °C in 5% CO2. After incubation, the supernatant was removed and replaced with 40 μL of 10% Alamar Blue per well. Plates were incubated for 5–6 h and measured for fluorescence at 530 nm excitation and 595 nm emission. The % inhibition was calculated using 0.4% DMSO (no inhibition) and 5 μM puromycin (100% inhibition) data. IC50 values were obtained by plotting % inhibition against log dose using GraphPad Prism v.6 (San Diego, CA, USA), nonlinear regression with a variable slope plot.
In general terms: Alamar Blue is a resazurin reagent that responds to reducing activity.

The subject of series [4] is Plasmodium falciparum 3D7. Also noted: method as in PMID 24032556. To be noted: cited from earlier work; for IC50: drug-sensitive strain, read-out: IC50 Pf (3D7).
Series [5] relates to Plasmodium falciparum Dd2. Further details: method as in PMID 24032556. To be noted: cited from earlier work; for IC50: drug-resistant strain, read-out: IC50 Pf (Dd2).
The test system of series [6] is HEK293 cells. Also noted: method as in PMID 24032556. To be noted: cited from earlier work.
Setting [7] is: chloroquine, pyrimethamine and mefloquine drug-resistant strain, mean ± SD.
[8] abbreviates: human embryonic kidney cells, mean ± SD.
The mark [9] stands for this setting: controls, drug-resistant strain.
[10] abbreviates: Homo sapiens, controls, read-out: HEK293 IC50 ± SD.
The mark [11] stands for this setting: N-Boc group of compound 7 removed.
The mark [12] stands for this setting: bromine at C-2 replaced with iodine.

Data on 17 compounds can be found in publication PMC10221708, “Synthesis and Antimalarial Evaluation of Halogenated Analogues of Thiaplakortone A” (Marine Drugs, 2023).

“Also recorded” adds a separate entry of the source. Read-outs that look alike come from different tables or passages of the source. A value given as a limit tells only on which side of the number the result lay.

As to `NCCc1c(C(F)(F)F)[nH]c2c1C(=O)C1=C(NC=C(C(F)(F)F)S1(=O)=O)C2=O` [Compound 11], the values for the IC50 (in series [1] (mean ± SD); in series [2] (setting [7]); in the series with HEK293 cells [3] (setting [8])) were 6.8 ± 2.44 µM, 4.55 ± 1.15 µM and above 80 µM, respectively. Besides, the “SI for 3D7” value in series [1] is above 12. In series [2], the “SI for Dd2” value is recorded as above 18.

With `NCCc1c[nH]c2c1C(=O)C1=C(NC=C(Br)S1(=O)=O)C2=O` [Compound 5], the 50% inhibitory concentration (IC50) in series [1] (mean ± SD) was 0.559 ± 0.145 µM; in series [2] (setting [7]) it was 0.058 ± 0.016 µM; with HEK293 cells [3] (setting [8]), above 80 µM. Further, in series [1], the “SI for 3D7” value was above 143. For the same compound, the “SI for Dd2” value in series [2] is listed as above 1379. Besides, the “cytotoxicity against HEK293 cells observed at 80 μM” value in the series on HEK293 cells [3] (80 μM (top screening concentration)) is listed as “minimal cytotoxicity; also recorded: minimal toxicity”.

On to `NCCc1c(Br)[nH]c2c1C(=O)C1=C(NC=C(Br)S1(=O)=O)C2=O` [Compound 6], for which the IC50 in series [1] (mean ± SD) is 1.65 ± 0.194 µM; in series [2] (setting [7]), 0.487 ± 0.098 µM; in the series with HEK293 cells [3] (setting [8]), above 80 µM. In addition, the “SI for 3D7” value in series [1] is above 48. Also, in series [2], the “SI for Dd2” value is above 164.

As to `CC(C)(C)OC(=O)NCCc1c[nH]c2c1C(=O)C1=C(NC=C(I)S1(=O)=O)C2=O` [Compound 7], the half-inhibitory concentration (IC50) in series [1] (mean ± SD) was 5.62 ± 0.383 µM; in series [2] (setting [7]) it was 1.19 ± 0.27 µM; with HEK293 cells [3] (setting [8]), above 80 µM. Also, the “SI for 3D7” value in series [1] is reported as above 14. Besides, in series [2], the “SI for Dd2” value is given as above 67.

`C[C@H]1[C@H](OC(=O)CCC(=O)O)O[C@@H]2O[C@@]3(C)CC[C@H]4[C@H](C)CC[C@@H]1[C@@]24OO3` [Artesunate, reference compound]: the 50% inhibitory concentration (IC50) is 0.00049 ± 0.0002 µM in series [1] (controls), 0.00038 ± 1e-05 µM in series [2] (setting [9]) and above 4 µM in the series with HEK293 cells [3] (setting [10]). In series [1], the “SI for 3D7” value is recorded as above 8163. The “SI for Dd2” value in series [2] is >10,526.

With `CC(C)(C)OC(=O)NCCc1c[nH]c2c1C(=O)C1=C(NC=C(Br)S1(=O)=O)C2=O` [Compound 3], the values for the IC50 (in series [1] (mean ± SD); in series [2] (setting [7]); with HEK293 cells [3] (setting [8])) were 3.52 ± 0.35 µM, 0.583 ± 0.094 µM and above 80 µM, respectively. In addition, the “SI for 3D7” value in series [1] was above 23. Also, the “SI for Dd2” value in series [2] is recorded as above 137.

As for `CC(C)(C)OC(=O)NCCc1c(Br)[nH]c2c1C(=O)C1=C(NC=C(Br)S1(=O)=O)C2=O` [Compound 4], the IC50 in series [1] (mean ± SD) is 1.37 ± 0.117 µM; in series [2] (setting [7]), 2.06 ± 0.192 µM; in the series on HEK293 cells [3] (setting [8]) it was above 80 µM. In series [1], the “SI for 3D7” value was above 58. Further, the “fold decrease in antimalarial activity against 3D7 upon removal of the Boc group” value in series [1] (compound 4 after Boc removal) is recorded as 1.2 fold. Further, in series [2], the “SI for Dd2” value is listed as above 39.

Consider `CC(C)(C)OC(=O)NCCc1c(I)[nH]c2c1C(=O)C1=C(NC=C(I)S1(=O)=O)C2=O` [Compound 8], for which the half-inhibitory concentration (IC50) in series [1] (mean ± SD) is 1.62 ± 0.154 µM; in series [2] (setting [7]), 0.659 ± 0.119 µM; with HEK293 cells [3] (setting [8]), above 80 µM. The “SI for 3D7” value in series [1] is on record as above 49. Further, the “SI for Dd2” value in series [2] is on record as above 121.

For the compound `CCc1nc(N)nc(N)c1-c1ccc(Cl)cc1` [Pyrimethamine, reference compound], the concentration for half-maximal inhibition (IC50) in series [1] (controls) is 0.00375 ± 0.0003 µM; in series [2] (setting [9]), above 40 µM; in the series on HEK293 cells [3] (setting [10]) it was above 40 µM. In addition, in series [1], the “SI for 3D7” value is >10,666.

For `NCCc1c[nH]c2c1C(=O)C1=C(NC=CS1(=O)=O)C2=O` [Compound 1, thiaplakortone A], the “selectivity index against 3D7” value in series [4] (HEK293 vs 3D7) is recorded as 76. The concentration for half-maximal inhibition (IC50) in series [4] was 0.051 µM; in series [1] (mean ± SD), 0.061 ± 0.009 µM; in series [5] it was 0.0066 µM; in series [2] (setting [7]), 0.008 ± 0.001 µM; in the series on HEK293 cells [3] (setting [8]), 1.32 ± 0.092 µM. Further, the “SI for 3D7” value in series [1] is 22. Also, in series [5] (HEK293 vs Dd2), the “selectivity index against Dd2” value is listed as 591. Besides, in series [2], the “SI for Dd2” value worked out at 150. Moreover, the “cytotoxicity against HEK293 cells” value with HEK293 cells [6] is “low cytotoxicity”.

`CN[C@@H](Cc1c[nH]c2c1C(=O)C1=C(NC=CS1(=O)=O)C2=O)C(=O)O` [Thiaplakortone C]: the concentration for half-maximal inhibition (IC50) in series [4] was 0.31 µM; in series [5], 0.17 µM.

`CC(C)(C)OC(=O)NCCc1c[nH]c2c1C(=O)C1=C(NC=CS1(=O)=O)C2=O` [Compound 2, Boc-protected thiaplakortone A]: the half-maximal inhibitory concentration (IC50) in series [1] (mean ± SD) is 0.227 ± 0.044 µM; in series [2] (setting [7]) it was 0.086 ± 0.012 µM; in the series with HEK293 cells [3] (setting [8]) it was 5.53 ± 0.021 µM. The “SI for 3D7” value in series [1] was found to be 24. The “SI for Dd2” value in series [2] was found to be 64.

`CN[C@@H](Cc1c[nH]c2c1C(=O)C1=C(C2=O)S(=O)(=O)C=CN1)C(=O)O` [Thiaplakortone D]: the concentration for half-maximal inhibition (IC50) in series [4] was 0.28 µM; in series [5], 0.16 µM.

On to `COc1ccc(C[C@H](N)C(=O)N[C@H]2[C@@H](O)[C@H](n3cnc4c(N(C)C)ncnc43)O[C@@H]2CO)cc1` [Puromycin, reference compound], for which the figures for the 50% inhibitory concentration (IC50) (in series [1] (controls); in series [2] (setting [9]); in the series with HEK293 cells [3] (setting [10])) were 0.0319 ± 0.0162 µM, 0.017 ± 0.00396 µM and 1.04 ± 0.066 µM, respectively. Moreover, the “SI for 3D7” value in series [1] is reported as 33. Also, the “SI for Dd2” value in series [2] was found to be 61.

As to `NCCc1c[nH]c2c1C(=O)C1=C(NC=C(I)S1(=O)=O)C2=O` [Compound 9], the “fold increase of antimalarial activity against 3D7 versus compound 7” value in series [1] (setting [11]) turned out to be 2.5 fold. The IC50 in series [1] (mean ± SD) was 2.22 ± 0.248 µM; in series [2] (setting [7]), 0.317 ± 0.008 µM; in the series on HEK293 cells [3] (setting [8]), above 80 µM. The “SI for 3D7” value in series [1] is above 36. In addition, in series [1] (setting [12]), the “fold reduction of antimalarial activity against 3D7 versus compound 5” value amounted to 3.9 fold. Besides, the “fold increase of antimalarial activity against Dd2 versus compound 7” value in series [2] (setting [11]) came to 3.7 fold. In series [2], the “SI for Dd2” value is above 252. The “fold reduction of antimalarial activity against Dd2 versus compound 5” value in series [2] (setting [12]) turned out to be 5.5 fold.

For `NCCc1c[nH]c2c1C(=O)C1=C(NCCS1(=O)=O)C2=O` [Thiaplakortone B], the IC50 in series [4] is 0.65 µM; in series [5], 0.092 µM.

Take `NCCc1c(I)[nH]c2c1C(=O)C1=C(NC=C(I)S1(=O)=O)C2=O` [Compound 10]: the 50% inhibitory concentration (IC50) in series [1] (mean ± SD) was 1.69 ± 0.316 µM; in series [2] (setting [7]), 0.725 ± 0.244 µM; in the series on HEK293 cells [3] (setting [8]), above 80 µM. The “SI for 3D7” value in series [1] is listed as above 47. The “SI for Dd2” value in series [2] was above 110.

The IC50 is the concentration that inhibits the measured activity by half.
